The target of experiment [1] is Kappa-type opioid receptor (Homo sapiens, UniProt P41145). In words: Radioligand Dose-Displacement Binding Assay. To be noted: pH 7.4; 25 °C. The procedure:
Radioligand dose displacement assays used 0.4 nM [3H]-U69,593 (GE Healthcare, Piscataway, N.J.; 40 Ci/mmole) with 15 ug membrane protein (recombinant kippa opioid receptor expressed in HEK 293 cells; in-house prep) in a final volume of 200 ul binding buffer (5% DMSO, 50 mM Trizma base, pH 7.4). Non-specific binding was determined in the presence of 10 uM unlabeled naloxone or U69,593. All reactions were performed in 96-well polypropylene plates for 1 hour at a temperature of about 25 C. Binding reactions were terminated by rapid filtration onto 96-well Unifilter GF/C filter plates (Perkin Elmer, Shelton, Conn.) presoaked in 0.5% polyethylenimine (Sigma). Harvesting was performed using a 96-well tissue harvester (Perkin Elmer, Shelton, Conn.) followed by five filtration washes with 200 ul ice-cold binding buffer. Filter plates were subsequently dried at 50 C. for 1-2 hours. Fifty ul/well scintillation cocktail (Perkin Elmer, Shelton, Conn.) was added.

A further experiment deals with Mu-type opioid receptor (Homo sapiens, UniProt P35372). In words: Radioligand Dose-Displacement Binding Assay. As to conditions: pH 7.4; 50 °C. The procedure: mu-Opioid Receptor Binding Assay Procedures: Radioligand dose-displacement binding assays for mu-opioid receptors used 0.3 nM [3H]-diprenorphine (Perkin Elmer, Shelton, Conn.), with […]/well in a final volume of 500 ul binding buffer (10 mM MgCl2, 1 mM EDTA, 5% DMSO, 50 mM HEPES, pH 7.4). Reactions were carried out in the absence or presence of increasing concentrations of unlabeled naloxone. All reactions were conducted in 96-deep well polypropylene plates for 2 hours at room temperature. Binding reactions were terminated by rapid filtration onto 96-well Unifilter GF/C filter plates (Perkin Elmer, Shelton, Conn.), presoaked in 0.5% polyethylenimine using a 96-well tissue harvester (Perkin Elmer, Shelton, Conn.) followed by performing three filtration washes with 500 ul of ice-cold binding buffer. Filter plates were subsequently dried at 50 C. for 2-3 hours. BetaScint scintillation cocktail (Perkin Elmer, Shelton, Conn.) was added (50 ul/well).
Chain of Mu-type opioid receptor (P35372 whole entry): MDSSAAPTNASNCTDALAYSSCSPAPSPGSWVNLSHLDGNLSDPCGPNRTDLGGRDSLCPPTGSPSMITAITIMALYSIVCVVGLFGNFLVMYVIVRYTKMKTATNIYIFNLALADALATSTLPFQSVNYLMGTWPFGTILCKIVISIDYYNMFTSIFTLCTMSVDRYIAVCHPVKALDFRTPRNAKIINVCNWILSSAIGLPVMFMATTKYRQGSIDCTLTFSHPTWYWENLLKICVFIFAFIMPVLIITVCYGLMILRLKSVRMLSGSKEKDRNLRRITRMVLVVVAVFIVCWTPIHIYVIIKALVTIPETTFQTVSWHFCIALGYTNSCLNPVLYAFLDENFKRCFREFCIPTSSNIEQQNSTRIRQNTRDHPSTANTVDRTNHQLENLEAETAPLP

Molecules are shown by their SMILES. Some results are limits rather than exact numbers.

Chain of Kappa-type opioid receptor (P41145 whole entry): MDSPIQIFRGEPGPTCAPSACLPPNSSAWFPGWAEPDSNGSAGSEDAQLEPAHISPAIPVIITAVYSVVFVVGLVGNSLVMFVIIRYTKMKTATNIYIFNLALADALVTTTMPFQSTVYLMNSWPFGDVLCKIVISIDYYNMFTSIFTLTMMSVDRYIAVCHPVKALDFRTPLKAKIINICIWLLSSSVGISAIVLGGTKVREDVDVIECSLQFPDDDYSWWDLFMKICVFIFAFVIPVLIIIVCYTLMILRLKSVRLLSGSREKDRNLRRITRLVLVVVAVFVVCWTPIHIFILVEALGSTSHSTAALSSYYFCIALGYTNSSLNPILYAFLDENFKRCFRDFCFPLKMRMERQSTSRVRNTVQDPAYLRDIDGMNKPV

One may read the Ki as the equilibrium dissociation constant of an inhibitor or competing ligand from its target. Low values mean a stronger hold on the target, high ones a looser hold on the target. Take `COc1ccc2c(c1)[C@]13CCN(C)[C@H](C2)[C@]1(O)CC[C@@]1(C3)NC(=O)NC1=O` [US8987287, 9]: the Ki was greater than 20 µM in experiment [1] and 3.88 µM at Mu-type opioid receptor.

Source of the values: BindingDB's records for patent US8987287 (Purdue Pharma, 2015).
